Read-outs that look alike come from different tables or passages of the source.
What was measured:
[1] = system: beagle dogs; assay: Ultra-structural examination of liver, kidney and heart by transmission electron microscopy; type: in vivo, dog; details: weeks 4, 8 and 13; TEM
Method: (§1) The first day of treatment was regarded as day one in the study. […] Oral administration was performed about 2 h after feeding. ARM was administered by a bolus intramuscular infusion through a 25-gauge needle at a constant volume of 2 ml kg^−1 once a day into the gluteal and infraspinous muscles. Two dogs of each sex from each group were allowed to recover without further treatment for an additional 4 weeks.
Termination of treatment was scheduled to occur on weeks 4, 8 (two interim necropsies) and 13, followed by a 4-week recovery period. For pathological examinations, the animals were euthanized within 24 h of the final drug administration with sodium pentobarbital, followed by exsanguination via the femoral artery. A gross necropsy was performed, including a thorough visual examination of all the internal organs. Weights were obtained for the brain, heart, liver, spleen, lung, kidneys, adrenals, thyroid/parathyroids, thymus, pancreas and ovaries/testes/prostate, and organ-to-body weight ratios were calculated. For each animal, representative samples from approximately 48 organs and tissues were taken and fixed in neutral buffered 10% formalin, except for the sternum, which was retained in Helly’s fixative (1000 ml distilled water, 25 g potassium dichromate, 10 g sodium sulfate, 50 g mercuric chloride, 50 ml 40% formaldehyde). […]

[2] = system: beagle dogs; assay: Pathologic (histopathological) examination of organs, brain and cardiac conduction system; type: in vivo, dog
Method: as §1
(§2) Termination of treatment was scheduled to occur on weeks 4, 8 (two interim necropsies) and 13, followed by a 4-week recovery period. For pathological examinations, the animals were euthanized within 24 h of the final drug administration with sodium pentobarbital, followed by exsanguination via the femoral artery. A gross necropsy was performed, including a thorough visual examination of all the internal organs. Weights were obtained for the brain, heart, liver, spleen, lung, kidneys, adrenals, thyroid/parathyroids, thymus, pancreas and ovaries/testes/prostate, and organ-to-body weight ratios were calculated. For each animal, representative samples from approximately 48 organs and tissues were taken and fixed in neutral buffered 10% formalin, except for the sternum, which was retained in Helly’s fixative (1000 ml distilled water, 25 g potassium dichromate, 10 g sodium sulfate, 50 g mercuric chloride, 50 ml 40% formaldehyde). Histopathological sections of all samples were prepared by embedding in paraffin wax, multiple-sectioning and staining with hematoxylin and eosin (HE). Samples of the left ventricular myocardium, right lateral hepatic lobe and right kidney from two animals of each sex from each group were fixed immediately after exsanguination in 2.5% glutaraldehyde, post-fixed in 1.0% osmium tetroxide, and embedded in plastic. Ultrathin liver, kidney and heart sections were examined with a Hitachi H-600 transmission electron microscope (TEM). All other tissues were examined by light microscopy.
After removal, the cardiac conduction system, including the sinoatrial node (SAN) and atrioventricular node (AVN), were selected by the Palate method. The brain was sectioned at multiple transverse levels to obtain susceptible brain regions. To improve the definition of the brain lesions, toluidine stains were applied on selected duplicate sections, and all preparations were examined under a light microscope. For pathologic examinations, degenerative neurons were evaluated on three randomly selected brain sections. The adjacent fields of neurons in each selected section were counted using a microscope at a magnification of 200×. […] The severity of the neuropathological lesions was defined as follows: the total number of neuropathological lesions per section area yielded a severity score from 0 to 4, where 0 = unaffected, 1 = minimally affected neurons with one degenerative cell per section, 2 = two degenerative cells per section, 3 = three degenerative cells per section and 4 = multiple degenerative areas per section.

[3] = Toxicokinetic analysis of plasma drug levels (HPLC); type: in vivo, dog; details: for AUC: 6 mg kg^−1 daily, ART p.o.; for maximum plasma concentration after dosing: daily i.m. 6 mg kg^−1
Method: as §1
For toxicokinetic analysis, blood samples were collected on weeks 1, 2, 4, 8 and 13 at 0 (before dosing), 0.5, 1, 2, 4, 8, 12 and 24 h after dosing. Approximately 1 ml blood was drawn from the antebrachial, cephalic or jugular vein of three animals of each sex per time point and deposited into heparinized tubes for immediate centrifugation at 3000 rpm at 4°C for 10 min. The plasma was then immediately transferred to 2 ml polypropylene tubes and stored on dry ice. Samples were stored at −80°C until HPLC analysis.

[4] = system: beagle dogs; assay: Severity grading of muscle tissue injury at the intramuscular injection site; type: in vivo, dog; details: for Severity of muscle tissue injury at the injection site: n=4
Method: as §1, §2
Gross findings in the ART and ARM treatment groups were limited to the injection sites.

[5] = system: beagle dogs; assay: Clinical chemistry in the 13-week repeated-dose dog study; type: in vivo
Method: as §1
Blood samples were collected from the femoral vein of each dog prior to treatment and every 2 weeks after the first day of treatment. Hematology parameters were measured using an automated hematology analyzer (Sysmex, XT-2000iv, Toa Medical Electronics Co. Ltd., Kobe, Japan) using standard methods. Test parameters included hemoglobin (Hb) levels, the hematocrit (Hct) fraction, erythrocyte (RBC) count, leukocyte (WBC) count, neutrophilic granulocyte fraction (NE%), monocyte fraction (MO%), lymphocyte levels (LY%), platelet count (PLT), reticulocyte count (RET%) and RBC morphology. The following clinical chemistry parameters were measured using a Hitachi-7180 Chemistry Analyzer (High-Technologies Corporation, Tokyo, Japan) and standard methods: glucose, blood urea nitrogen, inorganic phosphorus, creatinine, total protein, albumin, calcium, aspartate aminotransferase (AST), alanine aminotransferase, alkaline phosphatase, total bilirubin, creatine kinase (CK), sodium, potassium and chloride.

[6] = Week 4, 6 mg kg^-1 per day (ART p.o., ARM i.m.)
[7] = Week 8, 6 mg kg^-1 per day (ART p.o., ARM i.m.)
[8] = Week 13, 6 mg kg^-1 per day (ART p.o., ARM i.m.)
[9] = Week 17 (after 4-week recovery)
[10] = both treated groups, no significant differences
[11] = weeks 4 and 6 post-treatment, vs control group (p<0.01)

CO[C@H]1O[C@@H]2O[C@@]3(C)CC[C@H]4[C@H](C)CC[C@@H]([C@H]1C)[C@@]24OO3 [ARM, artemether]
ultra-structural findings in hepatocytes, myocardial cells and proximal tubules in the kidney [1]: Mitochondrial bending and distortion and swollen vacuoles
Cardiac conduction system foci (dogs affected/examined) [2, 6]: 0
Extramedullary hematopoiesis (dogs affected/examined) [2, 6]: 2/4
Hepatocyte necrosis (dogs affected/examined) [2, 6]: 3/4
Inhibition of erythropoiesis (dogs affected/examined) [2, 6]: 4/4
Neuronal necrosis (dogs affected/examined) [2, 6]: 0
Tubular cell degeneration (dogs affected/examined) [2, 6]: 4/4
Cardiac conduction system foci (dogs affected/examined) [2, 7]: 0
Extramedullary hematopoiesis (dogs affected/examined) [2, 7]: 3/4
Hepatocyte necrosis (dogs affected/examined) [2, 7]: 2/4
Inhibition of erythropoiesis (dogs affected/examined) [2, 7]: 2/4
Neuronal necrosis (dogs affected/examined) [2, 7]: 2/4
Tubular cell degeneration (dogs affected/examined) [2, 7]: 3/4
Cardiac conduction system foci (dogs affected/examined) [2, 8]: 0
Extramedullary hematopoiesis (dogs affected/examined) [2, 8]: 1/4
Hepatocyte necrosis (dogs affected/examined) [2, 8]: 0
Inhibition of erythropoiesis (dogs affected/examined) [2, 8]: 2/4
Neuronal necrosis (dogs affected/examined) [2, 8]: 4/4
Tubular cell degeneration (dogs affected/examined) [2, 8]: 2/4
Cardiac conduction system foci (dogs affected/examined) [2, 9]: 0
Extramedullary hematopoiesis (dogs affected/examined) [2, 9]: 0
Hepatocyte necrosis (dogs affected/examined) [2, 9]: 0
Inhibition of erythropoiesis (dogs affected/examined) [2, 9]: 0
Neuronal necrosis (dogs affected/examined) [2, 9]: 1/4
Tubular cell degeneration (dogs affected/examined) [2, 9]: 1/4
dogs with neuropathological abnormalities ([2]; after the 4-week recovery period, mild damage): one of the four dogs
histological examination of sternal bone marrow [2, 10]: mild inhibition of erythropoiesis and a decreased count of mature erythrocytes
spleen histology [2, 10]: extramedullary hematopoiesis was observed in the spleen
mean severity score of the lesions in the brain ([2]; score 0 (unaffected) to 4 (multiple degenerative areas per section)): 2.14
light microscopy of liver sections ([2]; some dogs, characterized as very mild): degenerative hepatocellular changes
histopathological changes in the kidneys ([2]; vs control groups): tubular epithelium vacuolation and necrosis
dogs with neuropathological abnormalities ([2]; week 8, two of the four dogs examined): 50%
dogs with neuropathological abnormalities ([2]; week 13, four of the four dogs examined): 100%
AUC ([3]; both sexes, beagle, dog, plasma, other: ART p.o., ARM i.m., 6 mg/kg, week 8, ARM i.m., dog plasma, read-out: AUC8w): 10.9 ± 11.6 ng·h/mL
AUC ([3]; both sexes, beagle, dog, plasma, other: ART p.o., ARM i.m., 6 mg/kg, week four, ARM i.m., dog plasma, read-out: AUC4w): 739 ± 209 ng·h/mL
AUC(0-t) ([3]; both sexes, beagle, dog, plasma, other: ART p.o., ARM i.m., 6 mg/kg, read-out: AUC93D): 71.3 ± 56.6 ng·h/mL
Cmax ([3]; both sexes, beagle, im, week four, 6 mg kg^−1 daily i.m., dog plasma, read-out: C max, w4): 219 ± 41.3 ng/mL
half-life ([3]; both sexes, beagle, im, week four, 6 mg kg^−1 daily i.m., dog plasma, read-out: T 1/2, w4 (biological half-life) (converted)): 180 ± 69.6 min
Tmax ([3]; both sexes, beagle, im, week four, 6 mg kg^−1 daily i.m., dog plasma, read-out: T max, w4): 30 ± 1.8 min
maximum plasma concentration after dosing ([3]; day 1): 90.63 ± 24.99 µg/L
maximum plasma concentration after dosing ([3]; week 4): 219.10 ± 41.30 µg/L
maximum plasma concentration after dosing ([3]; week 8): 46.20 ± 13.15 µg/L
maximum plasma concentration after dosing ([3]; week 13): 43.85 ± 10.79 µg/L
Severity of muscle tissue injury at the injection site ([4]; W4, 6 mg kg^−1 i.m., grades 0 (no significant lesions) to 5 (severe)): 2.25±0.87
Severity of muscle tissue injury at the injection site ([4]; W8, 6 mg kg^−1 i.m., grades 0 to 5): 2.67±0.78
Severity of muscle tissue injury at the injection site ([4]; W13, 6 mg kg^−1 i.m., grades 0 to 5): 3.92±1.08
Severity of muscle tissue injury at the injection site ([4]; W17 (after 4-week recovery), grades 0 to 5): 3.84±0.72
inflammation of muscle tissue at the injection site ([4]; i.m. injection, vs vehicle control group): more severely inflamed than that in the vehicle control group
Clinical chemistry: AST(M) ([5]; Week 13, males, 6 mg kg^-1 per day): ↑↑AST(M)
serum AST [5, 11]: significant increases
serum CK [5, 11]: significant increases
serum albumin levels ([5]; weeks 4 and 10, same changes also in peanut oil only group): significant decrease
